Experimental data published in PubChem BioAssay AID1259411 (Chemical Carcinogenesis Research Information System (CCRIS), 2018).
The source made the active and inactive calls. How the calls were made is not given here.

Test system: rodent carcinogenicity bioassays, tumor incidence
Assay: CCRIS carcinogenicity studies
Conditions: Dose: 0, Dose: 0
Procedure, shortened: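 NCI-built, expert-reviewed records of carcinogenicity and related test outcomes (mutagenicity, tumor promotion/inhibition) compiled from published and report sources, historical span 1985-2011, not updated.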

**Q.** What does the source list for `c1ccccc1`?
**A.** carcinogen call (Species: Mouse, Strain/Sex: C57BL/6 (heterozygous Trp53-deficient)/Male, Route: Inhalation, 100, 300 ppm 6 hr/d, 5 d/wk for 26 wks, then no exposure for lifetime, 100, 300 ppm 6 hr/d, 5 d/wk for 26 wks, then no exposure for lifetime, Tumor Site: Type of Lesion: Blood: hematopoietic neoplasms (325, 83,100%). Lymphoid tissue: thymic lymphoma (4, 50, 25%)): active; positive (highest dose); carcinogen call (Species: Mouse, Strain/Sex: C57BL/6 (homozygous Trp53-deficient)/Male, Route: Inhalation, 33, 100, 300 ppm 6 hr/d, 5 d/wk for 26 wks, then no exposure for lifetime, 33, 100, 300 ppm 6 hr/d, 5 d/wk for 26 wks, then no exposure for lifetime): inactive; negative; carcinogen call (Species: Mouse, Strain/Sex: C57BL/6 (wild type)/Male, Route: Inhalation, 33, 100, 300 ppm 6 hr/d, 5 d/wk for 26 wks, then no exposure for lifetime, 33, 100, 300 ppm 6 hr/d, 5 d/wk for 26 wks, then no exposure for lifetime, Tumor Site: Type of Lesion: Blood: Hematopoietic neoplasms (10, 21,16, 56%). Lymphoid tissue: Thymic lymphoma (0, 0,11, 28%)): active; positive (highest dose); carcinogen call (Species: Mouse, Strain/Sex: C57BL/6 (wild type)/Male, Route: Inhalation, 100, 300 ppm 6 hr/d, 5 d/wk for 26 wks, then no exposure for lifetime, 100, 300 ppm 6 hr/d, 5 d/wk for 26 wks, then no exposure for lifetime, Tumor Site: Type of Lesion: Blood: hematopoietic neoplasms (8, 25,30%). Lymphoid tissue: thymic lymphoma (0,17, 0%)): inactive; negative; carcinogen call (Species: RAT, Strain/Sex: F344/FEMALE, Route: GAVAGE, 25, 50, 100 MG/KG IN CORN OIL 5 D/WK FOR 103 WK, 25, 50, 100 MG/KG IN CORN OIL 5 D/WK FOR 103 WK, Tumor Site: Type of Lesion: ORAL CAVITY: SQUAMOUS CELL PAPILLOMA OR CARCINOMA, EAR (ZYMBAL GLAND): CARCINOMA, ADENOMA OR CARCINOMA): active; positive; carcinogen call (Species: RAT, Strain/Sex: F344/MALE, Route: GAVAGE, 50, 100, 200 MG/KG IN CORN OIL 5 D/WK FOR 103 WK, 50, 100, 200 MG/KG IN CORN OIL 5 D/WK FOR 103 WK, Tumor Site: Type of Lesion: INTEGUMENTARY SYSTEM (SKIN): SQUAMOUS CELL PAPILLOMA, SQUAMOUS CELL CARCINOMA, ORAL CAVITY: SQUAMOUS CELL PAPILLOMA, SQU): active; positive; carcinogen call (Species: RAT, Strain/Sex: SPRAGUE-DAWLEY/FEMALE, Route: GAVAGE, 50, 250 MG/KG BW IN OLIVE OIL 1/D 4-5 D/WK FOR 52 WK (STUDY DURATION: LIFETIME), 50, 250 MG/KG BW IN OLIVE OIL 1/D 4-5 D/WK FOR 52 WK (STUDY DURATION: LIFETIME), Tumor Site: Type of Lesion: [BRAIN WAS ONLY SITE EVALUATED]): inactive; negative; carcinogen call (Species: RAT, Strain/Sex: SPRAGUE-DAWLEY/FEMALE, Route: GAVAGE, 50, 250 MG/KG BW, 1/D, 4-5 D/WK FOR 52 WK, 50, 250 MG/KG BW, 1/D, 4-5 D/WK FOR 52 WK, Tumor Site: Type of Lesion: ZYMBAL GLAND: CARCINOMA, MAMMARY GLAND: CARCINOMA): active; positive; carcinogen call (Species: RAT, Strain/Sex: SPRAGUE-DAWLEY/MALE,FEMALE, Route: GAVAGE, 500 MG/KG BW, 1/WK, Tumor Site: Type of Lesion: ORAL CAVITY: SQUAMOUS CELL CARCINOMA, ZYMBAL GLAND: CARCINOMA): active; positive; carcinogen call (Species: RAT, Strain/Sex: SPRAGUE-DAWLEY/MALE, Route: GAVAGE, 50, 250 MG/KG BW IN OLIVE OIL 1/D 4-5 D/WK FOR 52 WK (STUDY DURATION: LIFETIME), 50, 250 MG/KG BW IN OLIVE OIL 1/D 4-5 D/WK FOR 52 WK (STUDY DURATION: LIFETIME), Tumor Site: Type of Lesion: [BRAIN WAS ONLY SITE EVALUATED]): inactive; negative; carcinogen call (Species: RAT, Strain/Sex: SPRAGUE-DAWLEY/MALE, Route: GAVAGE, 50, 250 MG/KG BW, 1/D, 4-5 D/WK FOR 52 WK, 50, 250 MG/KG BW, 1/D, 4-5 D/WK FOR 52 WK, Tumor Site: Type of Lesion: HEMATOPOIETIC SYSTEM (LEUKEMIA)): active; positive; carcinogen call (Species: RAT, Strain/Sex: STRAIN-CD/FEMALE, Route: INHALATION, 200 PPM 4 HR/D 5 D/WK FOR 7 WK THEN 7 HR/D FOR 12 WK THEN 300 PPM 7 HR/D 5 D/WK FOR 85 WK (STUDY DURATION: LIFESPAN), Tumor Site: Type of Lesion: MAMMARY GLAND: ADENOCARCINOMA, ORAL CAVITY: CARCINOMA, ZYMBAL GLAND: CARCINOMA, Tumor Site: Type of Lesion: MAMMARY GLAND: ADENOCARCINOMA, ORAL CAVITY: CARCINOMA, ZYMBAL GLAND: CARCINOMA): active; positive; carcinogen call (Species: RAT, Strain/Sex: STRAIN-CD/FEMALE, Route: INHALATION, 200 PPM 4 HR/D FOR 7 WK THEN 7 HR/D FOR 12 WK THEN 300 PPM 7 HR/D 5 D/WK FOR 85 WK TO RATS ALSO EXPOSED IN UTERO (STU, Tumor Site: Type of Lesion: ZYMBAL GLAND: CARCINOMA, ORAL CAVITY: CARCINOMA, NASAL CAVITY: CARCINOMA, MAMMARY GLAND: ADENOCARCINOMA, LIVER: HEPATOMA, Tumor Site: Type of Lesion: ZYMBAL GLAND: CARCINOMA, ORAL CAVITY: CARCINOMA, NASAL CAVITY: CARCINOMA, MAMMARY GLAND: ADENOCARCINOMA, LIVER: HEPATOMA): active; positive; carcinogen call (Species: RAT, Strain/Sex: STRAIN-CD/FEMALE, Route: INTRAGASTRIC, 50, 250 MG/KG IN OLIVE OIL 1/D 4-5 D/WK FOR 52 WK (STUDY DURATION: LIFESPAN), 50, 250 MG/KG IN OLIVE OIL 1/D 4-5 D/WK FOR 52 WK (STUDY DURATION: LIFESPAN), Tumor Site: Type of Lesion: ZYMBAL GLAND: CARCINOMA): active; positive; carcinogen call (Species: RAT, Strain/Sex: STRAIN-CD/FEMALE, Route: INTRAGASTRIC, 500 MG/KG IN OLIVE OIL 1/D 4-5 D/WK FOR 104 WK (STUDY DURATION: 104 WK)): inactive; negative; carcinogen call (Species: RAT, Strain/Sex: STRAIN-CD/FEMALE, Route: INTRAGASTRIC, 500 MG/KG IN OLIVE OIL 1/D 4-5 D/WK FOR 104 WK (STUDY DURATION: LIFESPAN), Tumor Site: Type of Lesion: ZYMBAL GLAND: CARCINOMA, LIVER: ANGIOSARCOMA, ORAL CAVITY: CARCINOMA, HEMOLYMPHORETICULAR: TUMOR, Tumor Site: Type of Lesion: ZYMBAL GLAND: CARCINOMA, LIVER: ANGIOSARCOMA, ORAL CAVITY: CARCINOMA, HEMOLYMPHORETICULAR: TUMOR): active; positive; carcinogen call (Species: RAT, Strain/Sex: STRAIN-CD/MALE, Route: INHALATION, 200 PPM 4 HR/D 5 D/WK FOR 7 WK THEN 7 HR/D FOR 12 WK THEN 300 PPM 7 HR/D 5 D/WK FOR 85 WK TO RATS ALSO EXPOSED IN UTE, Tumor Site: Type of Lesion: ZYMBAL GLAND: CARCINOMA): active; positive; carcinogen call (Species: RAT, Strain/Sex: STRAIN-CD/MALE, Route: INTRAGASTRIC, 50, 250 MG/KG IN OLIVE OIL 1/D 4-5 D/WK FOR 52 WK (STUDY DURATION: LIFESPAN), 50, 250 MG/KG IN OLIVE OIL 1/D 4-5 D/WK FOR 52 WK (STUDY DURATION: LIFESPAN), Tumor Site: Type of Lesion: HEMOLYMPHORETICULAR SYSTEM: TUMOR): active; positive; carcinogen call (Species: RAT, Strain/Sex: STRAIN-CD/MALE, Route: INTRAGASTRIC, 500 MG/KG IN OLIVE OIL 1/D 4-5 D/WK FOR 104 WK (STUDY DURATION: 104 WK)): inactive; negative; carcinogen call (Species: RAT, Strain/Sex: STRAIN-CD/MALE, Route: INTRAGASTRIC, 500 MG/KG IN OLIVE OIL 1/D 4-5 D/WK FOR 104 WK (STUDY DURATION: LIFESPAN), Tumor Site: Type of Lesion: ZYMBAL GLAND: CARCINOMA, ORAL CAVITY: CARCINOMA, NASAL CAVITY: CARCINOMA, SKIN: CARCINOMA, Tumor Site: Type of Lesion: ZYMBAL GLAND: CARCINOMA, ORAL CAVITY: CARCINOMA, NASAL CAVITY: CARCINOMA, SKIN: CARCINOMA): active; positive; carcinogen call (Species: RAT, Strain/Sex: WISTAR/FEMALE, Route: GAVAGE, 500 MG/KG IN OLIVE OIL 1/D FOR 4 TO 5 D/WK FOR 104 WK (STUDY DURATION: LIFETIME), Tumor Site: Type of Lesion: ZYMBAL GLAND: CARCINOMA, ORAL CAVITY: CARCINOMA, NASAL CAVITY: CARCINOMA, Tumor Site: Type of Lesion: ZYMBAL GLAND: CARCINOMA, ORAL CAVITY: CARCINOMA, NASAL CAVITY: CARCINOMA): active; positive; carcinogen call (Species: RAT, Strain/Sex: WISTAR/FEMALE, Route: INTRAGASTRIC, 500 MG/KG BW IN OLIVE OIL 1/D 4-5 D/WK FOR 104 WK (STUDY DURATION: LIFESPAN), Tumor Site: Type of Lesion: ZYMBAL GLAND: CARCINOMA, MAMMARY GLAND: ADENOCARCINOMA, HEMOLYMPHORETICULAR SYSTEM: TUMOR, Tumor Site: Type of Lesion: ZYMBAL GLAND: CARCINOMA, MAMMARY GLAND: ADENOCARCINOMA, HEMOLYMPHORETICULAR SYSTEM: TUMOR): active; positive; carcinogen call (Species: RAT, Strain/Sex: WISTAR/MALE, Route: GAVAGE, 500 MG/KG IN OLIVE OIL 1/D FOR 4 TO 5 D/WK FOR 104 WK (STUDY DURATION: LIFETIME), Tumor Site: Type of Lesion: ZYMBAL GLAND: CARCINOMA, ORAL CAVITY: CARCINOMA, NASAL CAVITY: CARCINOMA, Tumor Site: Type of Lesion: ZYMBAL GLAND: CARCINOMA, ORAL CAVITY: CARCINOMA, NASAL CAVITY: CARCINOMA): active; positive; carcinogen call (Species: RAT, Strain/Sex: WISTAR/MALE, Route: INTRAGASTRIC, 500 MG/KG BW IN OLIVE OIL 1/D 4-5 D/WK FOR 104 WK (STUDY DURATION: LIFESPAN), Tumor Site: Type of Lesion: ZYMBAL GLAND: CARCINOMA): active; positive
